Experiment: excess molar enthalpy (molar enthalpy of mixing); xn = mol fraction of the nth substance listed
Conditions: 313.15 K, 100 kPa

Which excess molar enthalpy (x1 = 0.0571) does the source give for CCC(=O)O + C1CCCCC1 here?
The excess molar enthalpy was 0.0337 kcal/mol.

What about the excess molar enthalpy (x1 = 0.108) of the same compound?
The excess molar enthalpy was 0.0657 kcal/mol.

What about the excess molar enthalpy (x1 = 0.1537) of the same compound?
Its excess molar enthalpy is 0.0913 kcal/mol.

What about the excess molar enthalpy (x1 = 0.195) of the same compound?
Its excess molar enthalpy is 0.112 kcal/mol.

What about the excess molar enthalpy (x1 = 0.3264) of the same compound?
Its excess molar enthalpy is 0.154 kcal/mol.

And the excess molar enthalpy (x1 = 0.4209)?
The excess molar enthalpy was 0.168 kcal/mol.

And the excess molar enthalpy (x1 = 0.4921)?
Its excess molar enthalpy is 0.171 kcal/mol.

What about the excess molar enthalpy (x1 = 0.5924) of the same compound?
The excess molar enthalpy was 0.167 kcal/mol.

And the excess molar enthalpy (x1 = 0.6856)?
The excess molar enthalpy was 0.147 kcal/mol.

What about the excess molar enthalpy (x1 = 0.744) of the same compound?
The excess molar enthalpy was 0.129 kcal/mol.

And the excess molar enthalpy (x1 = 0.8134)?
The excess molar enthalpy was 0.0982 kcal/mol.

And the excess molar enthalpy (x1 = 0.8971)?
The excess molar enthalpy was 0.0507 kcal/mol.

What about the excess molar enthalpy (x1 = 0.9208) of the same compound?
Its excess molar enthalpy is 0.0359 kcal/mol.

And the excess molar enthalpy (x1 = 0.9458)?
The excess molar enthalpy was 0.0196 kcal/mol.

Which results are given for CCC(=O)O + CCCCCCCC?
excess molar enthalpy (x1 = 0.1539): 0.065 kcal/mol; excess molar enthalpy (x1 = 0.2144): 0.0856 kcal/mol; excess molar enthalpy (x1 = 0.2668): 0.104 kcal/mol; excess molar enthalpy (x1 = 0.3531): 0.126 kcal/mol; excess molar enthalpy (x1 = 0.4212): 0.138 kcal/mol; excess molar enthalpy (x1 = 0.5219): 0.146 kcal/mol; excess molar enthalpy (x1 = 0.5928): 0.146 kcal/mol; excess molar enthalpy (x1 = 0.7661): 0.11 kcal/mol; excess molar enthalpy (x1 = 0.8137): 0.0932 kcal/mol; excess molar enthalpy (x1 = 0.8676): 0.0715 kcal/mol; excess molar enthalpy (x1 = 0.8973): 0.0566 kcal/mol; excess molar enthalpy (x1 = 0.9291): 0.0406 kcal/mol

Which excess molar enthalpy (x1 = 0.0444) does the source give for CCC(=O)O + Cc1cc(C)cc(C)c1 here?
The excess molar enthalpy was 0.0055 kcal/mol.

What about the excess molar enthalpy (x1 = 0.0548) of the same compound?
The excess molar enthalpy was 0.00574 kcal/mol.

What about the excess molar enthalpy (x1 = 0.0718) of the same compound?
Its excess molar enthalpy is 0.00598 kcal/mol.

What about the excess molar enthalpy (x1 = 0.134) of the same compound?
The excess molar enthalpy was 0.00335 kcal/mol.

And the excess molar enthalpy (x1 = 0.1884)?
Its excess molar enthalpy is -0.000239 kcal/mol.

What about the excess molar enthalpy (x1 = 0.2364) of the same compound?
Its excess molar enthalpy is -0.00287 kcal/mol.

And the excess molar enthalpy (x1 = 0.3171)?
The excess molar enthalpy was -0.00526 kcal/mol.

And the excess molar enthalpy (x1 = 0.3824)?
The excess molar enthalpy was -0.00717 kcal/mol.

What about the excess molar enthalpy (x1 = 0.4815) of the same compound?
Its excess molar enthalpy is -0.00813 kcal/mol.

What about the excess molar enthalpy (x1 = 0.5532) of the same compound?
Its excess molar enthalpy is -0.0086 kcal/mol.

And the excess molar enthalpy (x1 = 0.65)?
Its excess molar enthalpy is -0.00813 kcal/mol.

What about the excess molar enthalpy (x1 = 0.7359) of the same compound?
The excess molar enthalpy was -0.00645 kcal/mol.

And the excess molar enthalpy (x1 = 0.7879)?
The excess molar enthalpy was -0.00574 kcal/mol.

What about the excess molar enthalpy (x1 = 0.8479) of the same compound?
The excess molar enthalpy was -0.0043 kcal/mol.

What about the excess molar enthalpy (x1 = 0.9176) of the same compound?
Its excess molar enthalpy is -0.00287 kcal/mol.

And the excess molar enthalpy (x1 = 0.9571)?
The excess molar enthalpy was -0.00191 kcal/mol.

Which excess molar enthalpy (x1 = 0.0528) does the source give for CCC(=O)O + C1CCOCC1 here?
Its excess molar enthalpy is -0.0263 kcal/mol.

And the excess molar enthalpy (x1 = 0.1003)?
Its excess molar enthalpy is -0.0504 kcal/mol.

And the excess molar enthalpy (x1 = 0.1433)?
The excess molar enthalpy was -0.0679 kcal/mol.

What about the excess molar enthalpy (x1 = 0.1823) of the same compound?
The excess molar enthalpy was -0.0813 kcal/mol.

What about the excess molar enthalpy (x1 = 0.3085) of the same compound?
Its excess molar enthalpy is -0.112 kcal/mol.

What about the excess molar enthalpy (x1 = 0.4009) of the same compound?
The excess molar enthalpy was -0.121 kcal/mol.

What about the excess molar enthalpy (x1 = 0.6675) of the same compound?
The excess molar enthalpy was -0.101 kcal/mol.

And the excess molar enthalpy (x1 = 0.8006)?
Its excess molar enthalpy is -0.0648 kcal/mol.

What about the excess molar enthalpy (x1 = 0.8893) of the same compound?
The excess molar enthalpy was -0.0335 kcal/mol.

And the excess molar enthalpy (x1 = 0.9146)?
The excess molar enthalpy was -0.0229 kcal/mol.

And the excess molar enthalpy (x1 = 0.9414)?
Its excess molar enthalpy is -0.0127 kcal/mol.

What about the excess molar enthalpy (x1 = 0.9698) of the same compound?
The excess molar enthalpy was -0.00598 kcal/mol.

For CCC(=O)O + C1COCCO1, which excess molar enthalpy (x1 = 0.087) is on record?
The excess molar enthalpy was -0.0294 kcal/mol.

And the excess molar enthalpy (x1 = 0.125)?
Its excess molar enthalpy is -0.0351 kcal/mol.

What about the excess molar enthalpy (x1 = 0.16) of the same compound?
The excess molar enthalpy was -0.039 kcal/mol.

What about the excess molar enthalpy (x1 = 0.2222) of the same compound?
The excess molar enthalpy was -0.0406 kcal/mol.

What about the excess molar enthalpy (x1 = 0.2759) of the same compound?
The excess molar enthalpy was -0.0392 kcal/mol.

What about the excess molar enthalpy (x1 = 0.3636) of the same compound?
Its excess molar enthalpy is -0.0318 kcal/mol.

What about the excess molar enthalpy (x1 = 0.4325) of the same compound?
The excess molar enthalpy was -0.0239 kcal/mol.

What about the excess molar enthalpy (x1 = 0.5334) of the same compound?
The excess molar enthalpy was -0.0103 kcal/mol.

And the excess molar enthalpy (x1 = 0.6957)?
Its excess molar enthalpy is 0.0131 kcal/mol.

What about the excess molar enthalpy (x1 = 0.7742) of the same compound?
The excess molar enthalpy was 0.0206 kcal/mol.

And the excess molar enthalpy (x1 = 0.8728)?
The excess molar enthalpy was 0.0203 kcal/mol.

What about the excess molar enthalpy (x1 = 0.9014) of the same compound?
Its excess molar enthalpy is 0.0174 kcal/mol.

What about the excess molar enthalpy (x1 = 0.9648) of the same compound?
Its excess molar enthalpy is 0.00813 kcal/mol.

— a compilation of properties of binary mixtures (doi:10.1021/je950194b)
